Patent US20120082658A1, “Methods for the Treatment of Allergic Diseases” (VentiRx Pharmaceuticals, Inc., priority 2010, published 2012)

Key:
Assay type in all cases: cell-based
TLR4 = biological target: T1, TLR4 (Homo sapiens, UniProt O00206+Q9Y6Y9); experiment: HEK293 cells transfected with human TLR4, NF-κB driven reporter
T1 construct: expressed in transfected cells; host or cells: HEK293
Protocol: (§1) FIG. 8 is two graphs depicting the potency and selectivity of VTX-378 for TLR8. The half-maximal effective concentration (EC50) for VTX-378 activation of TLR8 and TLR7 was assessed in peripheral blood mononuclear cells (PBMCs) by the amount of secreted TNFα (A) and by the activity of NF-κB (B) from 15 healthy donors and also in HEK293 cells transfected with various human TLRs.
(§2) Preclinical studies were performed with VTX-378, the active pharmaceutical ingredient in VTX-1463. The specificity of VTX-378 for human TLR8 relative to other TLRs was assessed in transfected Human Embryonic Kidney 293 (HEK293) cells engineered to express individual TLRs (2-9) via transfection, and assessed using an NF-κB driven reporter system. […] The pharmacologic effects of VTX-378 were characterized in vitro using isolated human peripheral blood mononuclear cells (PBMCs).

human TLR8 = biological target: T2, human TLR8 (Homo sapiens, UniProt Q9NR97); experiment: HEK293 cells transfected with human TLR8, NF-κB driven reporter; conditions: read-out: half maximal effective concentration (EC50), activation of TLR8
T2 construct: expressed in transfected cells; host or cells: HEK293
T2 sequence (Q9NR97 27-1041): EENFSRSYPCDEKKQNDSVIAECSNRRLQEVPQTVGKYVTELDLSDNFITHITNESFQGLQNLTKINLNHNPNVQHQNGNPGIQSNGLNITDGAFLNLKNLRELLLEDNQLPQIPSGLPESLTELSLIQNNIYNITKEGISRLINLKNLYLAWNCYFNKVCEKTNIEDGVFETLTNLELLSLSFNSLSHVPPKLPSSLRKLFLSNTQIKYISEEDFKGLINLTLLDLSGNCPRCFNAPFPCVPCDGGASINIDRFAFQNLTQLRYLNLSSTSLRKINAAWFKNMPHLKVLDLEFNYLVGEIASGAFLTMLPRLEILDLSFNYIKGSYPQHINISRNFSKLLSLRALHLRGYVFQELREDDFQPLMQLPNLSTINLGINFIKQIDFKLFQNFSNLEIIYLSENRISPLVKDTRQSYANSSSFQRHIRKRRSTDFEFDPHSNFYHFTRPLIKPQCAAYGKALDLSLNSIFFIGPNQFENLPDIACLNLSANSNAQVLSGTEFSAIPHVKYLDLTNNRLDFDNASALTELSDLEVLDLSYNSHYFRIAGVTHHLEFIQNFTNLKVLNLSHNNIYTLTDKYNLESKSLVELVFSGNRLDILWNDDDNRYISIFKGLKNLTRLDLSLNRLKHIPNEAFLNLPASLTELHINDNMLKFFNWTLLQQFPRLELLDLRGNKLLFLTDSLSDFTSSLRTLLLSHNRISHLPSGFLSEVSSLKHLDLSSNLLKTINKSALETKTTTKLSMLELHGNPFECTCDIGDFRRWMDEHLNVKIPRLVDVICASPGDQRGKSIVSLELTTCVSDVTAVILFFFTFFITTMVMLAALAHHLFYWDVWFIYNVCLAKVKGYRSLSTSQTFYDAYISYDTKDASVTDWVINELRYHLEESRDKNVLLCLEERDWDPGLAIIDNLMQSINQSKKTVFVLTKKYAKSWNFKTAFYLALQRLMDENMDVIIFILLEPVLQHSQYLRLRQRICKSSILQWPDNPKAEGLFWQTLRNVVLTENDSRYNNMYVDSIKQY
Protocol: as §1, §2

TLR9 = biological target: T3, TLR9 (Homo sapiens, UniProt Q9NR96); experiment: HEK293 cells transfected with human TLR9, NF-κB driven reporter; conditions: concentration up to 25 uM
T3 construct: expressed in transfected cells; host or cells: HEK293
T3 sequence (Q9NR96 26-1032): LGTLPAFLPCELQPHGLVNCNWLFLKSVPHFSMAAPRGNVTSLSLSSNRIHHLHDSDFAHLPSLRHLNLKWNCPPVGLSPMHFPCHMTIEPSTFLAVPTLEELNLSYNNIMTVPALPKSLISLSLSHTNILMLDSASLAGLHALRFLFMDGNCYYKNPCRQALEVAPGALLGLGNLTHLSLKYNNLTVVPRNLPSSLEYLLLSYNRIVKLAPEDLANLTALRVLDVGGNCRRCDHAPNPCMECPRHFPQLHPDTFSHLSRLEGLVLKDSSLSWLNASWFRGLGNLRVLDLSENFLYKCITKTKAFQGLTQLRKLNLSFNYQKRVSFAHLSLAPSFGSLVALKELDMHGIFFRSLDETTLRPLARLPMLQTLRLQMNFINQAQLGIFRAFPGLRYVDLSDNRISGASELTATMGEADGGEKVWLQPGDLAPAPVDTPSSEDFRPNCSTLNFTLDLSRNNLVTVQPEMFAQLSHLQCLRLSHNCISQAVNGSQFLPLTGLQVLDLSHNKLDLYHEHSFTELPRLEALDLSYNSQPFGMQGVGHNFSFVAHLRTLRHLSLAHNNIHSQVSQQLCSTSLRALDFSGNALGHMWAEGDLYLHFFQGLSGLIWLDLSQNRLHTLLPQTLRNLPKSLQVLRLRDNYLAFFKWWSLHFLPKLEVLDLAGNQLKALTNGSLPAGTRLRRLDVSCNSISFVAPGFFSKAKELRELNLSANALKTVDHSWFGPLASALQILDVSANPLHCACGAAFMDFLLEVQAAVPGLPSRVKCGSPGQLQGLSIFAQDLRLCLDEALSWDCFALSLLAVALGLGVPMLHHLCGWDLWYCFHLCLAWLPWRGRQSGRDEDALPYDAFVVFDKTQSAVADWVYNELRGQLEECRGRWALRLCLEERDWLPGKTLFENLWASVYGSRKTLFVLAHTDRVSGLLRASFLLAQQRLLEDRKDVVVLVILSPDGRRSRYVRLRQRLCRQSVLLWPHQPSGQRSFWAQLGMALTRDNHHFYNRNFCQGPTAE
Protocol: as §1, §2

T1 sequence (O00206 24-839): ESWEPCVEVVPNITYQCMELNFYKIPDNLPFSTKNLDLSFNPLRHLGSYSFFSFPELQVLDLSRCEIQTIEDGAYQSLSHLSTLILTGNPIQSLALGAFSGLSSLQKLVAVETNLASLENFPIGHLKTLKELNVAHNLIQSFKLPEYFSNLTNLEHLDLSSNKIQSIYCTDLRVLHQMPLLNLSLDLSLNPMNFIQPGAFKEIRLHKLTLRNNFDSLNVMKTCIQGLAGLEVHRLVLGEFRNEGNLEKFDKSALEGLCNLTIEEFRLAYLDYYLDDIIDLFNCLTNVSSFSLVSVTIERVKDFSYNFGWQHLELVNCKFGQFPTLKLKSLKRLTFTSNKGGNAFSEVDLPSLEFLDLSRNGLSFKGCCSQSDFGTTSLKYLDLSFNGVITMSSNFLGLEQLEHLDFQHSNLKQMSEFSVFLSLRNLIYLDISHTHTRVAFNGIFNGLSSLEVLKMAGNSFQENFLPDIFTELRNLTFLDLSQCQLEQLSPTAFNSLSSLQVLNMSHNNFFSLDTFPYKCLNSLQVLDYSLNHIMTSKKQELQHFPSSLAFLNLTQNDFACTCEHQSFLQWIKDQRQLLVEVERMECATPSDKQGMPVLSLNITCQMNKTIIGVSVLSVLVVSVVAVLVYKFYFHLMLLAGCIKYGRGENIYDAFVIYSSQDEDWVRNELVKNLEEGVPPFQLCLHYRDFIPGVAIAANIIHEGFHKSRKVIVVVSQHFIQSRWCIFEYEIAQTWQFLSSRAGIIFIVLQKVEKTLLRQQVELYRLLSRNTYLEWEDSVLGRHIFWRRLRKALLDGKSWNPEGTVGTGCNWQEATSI
T1 sequence (Q9Y6Y9 17-160 limits assumed): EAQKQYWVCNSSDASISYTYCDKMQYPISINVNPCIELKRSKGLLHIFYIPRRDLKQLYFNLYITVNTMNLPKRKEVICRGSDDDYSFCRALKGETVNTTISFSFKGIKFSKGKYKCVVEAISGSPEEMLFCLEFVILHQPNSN

For `CCCN(CCC)C(=O)C1=Cc2ccc(-c3ccc(C(=O)N4CCCC4)cc3)cc2N=C(N)C1` [VTX-378], the “activity on TLR4” value (TLR4) was “minimal to no activity”, the EC50 (human TLR8) was roughly 0.1 µM and the “activity on TLR9” value (TLR9) was “no detectable activity”.
